Measured values: patent publication US8921376B2, “Pyrrolopyridines useful as inhibitors of protein kinase” (Vertex Pharmaceuticals Incorporated, priority 2005, dated 2014)

Experiments:
Assay type in all cases: biochemical
[1] = target: ROCK I (Homo sapiens, UniProt Q13464); experiment: ROCK-I inhibition assay (radioactive enzyme assay, MBP substrate)
Outline: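 Human ROCK at 5 nM phosphorylated 27 μM myelin basic protein with 13 μM [γ-33P]ATP (final) in HEPES pH 7.5, MgCl2, NaCl, DTT and 1.5% DMSO. Reactions ran 2 h at room temperature before TCA quench and filter-plate scintillation counting. After background subtraction, data were fit to give Ki(app).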

[2] = target: JAK2 (Homo sapiens, UniProt O60674); experiment: JAK2 inhibition assay (as Example 3 with JAK-2 enzyme)
Sequence of JAK2 (O60674 whole entry): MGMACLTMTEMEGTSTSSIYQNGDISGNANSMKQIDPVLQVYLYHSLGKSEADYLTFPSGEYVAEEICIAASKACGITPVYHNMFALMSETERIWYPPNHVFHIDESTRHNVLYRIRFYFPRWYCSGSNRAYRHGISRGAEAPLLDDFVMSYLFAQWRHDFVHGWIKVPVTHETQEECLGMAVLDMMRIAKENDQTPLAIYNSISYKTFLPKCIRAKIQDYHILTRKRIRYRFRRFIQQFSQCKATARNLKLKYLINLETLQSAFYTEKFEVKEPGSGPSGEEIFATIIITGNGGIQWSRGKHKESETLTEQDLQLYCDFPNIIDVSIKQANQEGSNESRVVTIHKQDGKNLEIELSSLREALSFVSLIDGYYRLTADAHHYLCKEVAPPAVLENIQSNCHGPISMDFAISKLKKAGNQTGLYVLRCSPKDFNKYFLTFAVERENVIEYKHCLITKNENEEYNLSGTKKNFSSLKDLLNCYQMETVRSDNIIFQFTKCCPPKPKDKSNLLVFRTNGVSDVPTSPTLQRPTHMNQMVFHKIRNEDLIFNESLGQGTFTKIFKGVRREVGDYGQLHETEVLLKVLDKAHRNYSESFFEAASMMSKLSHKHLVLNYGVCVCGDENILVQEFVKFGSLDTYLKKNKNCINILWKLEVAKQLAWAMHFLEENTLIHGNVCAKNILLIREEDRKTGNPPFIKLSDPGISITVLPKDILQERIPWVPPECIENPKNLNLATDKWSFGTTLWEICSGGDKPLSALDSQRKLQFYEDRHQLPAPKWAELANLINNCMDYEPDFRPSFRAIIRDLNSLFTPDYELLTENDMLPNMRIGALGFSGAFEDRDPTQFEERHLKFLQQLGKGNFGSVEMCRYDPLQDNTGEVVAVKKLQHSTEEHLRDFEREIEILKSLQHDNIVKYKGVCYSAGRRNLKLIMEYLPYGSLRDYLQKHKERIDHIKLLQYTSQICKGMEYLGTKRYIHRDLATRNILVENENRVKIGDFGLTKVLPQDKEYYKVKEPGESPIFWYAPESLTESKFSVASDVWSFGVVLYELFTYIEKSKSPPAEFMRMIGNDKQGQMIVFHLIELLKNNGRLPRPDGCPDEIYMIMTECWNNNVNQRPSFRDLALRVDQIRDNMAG
Outline: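 In HEPES pH 7.4 buffer with 10 mM MgCl2, 1 mM DTT, 25 mM NaCl and 0.01% BSA, JAK2 enzyme phosphorylated poly(Glu)4Tyr (final 15 μM) using 33P-ATP (final 12 μM) for 20 min at room temperature (25 °C). Reactions stopped with TCA; incorporated 33P measured by scintillation after filtration.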

[3] = target: T1, JAK3 (Homo sapiens, UniProt P52333); experiment: JAK3 inhibition assay (33P incorporation into poly(Glu)4Tyr)
T1 sequence (P52333 1-1124): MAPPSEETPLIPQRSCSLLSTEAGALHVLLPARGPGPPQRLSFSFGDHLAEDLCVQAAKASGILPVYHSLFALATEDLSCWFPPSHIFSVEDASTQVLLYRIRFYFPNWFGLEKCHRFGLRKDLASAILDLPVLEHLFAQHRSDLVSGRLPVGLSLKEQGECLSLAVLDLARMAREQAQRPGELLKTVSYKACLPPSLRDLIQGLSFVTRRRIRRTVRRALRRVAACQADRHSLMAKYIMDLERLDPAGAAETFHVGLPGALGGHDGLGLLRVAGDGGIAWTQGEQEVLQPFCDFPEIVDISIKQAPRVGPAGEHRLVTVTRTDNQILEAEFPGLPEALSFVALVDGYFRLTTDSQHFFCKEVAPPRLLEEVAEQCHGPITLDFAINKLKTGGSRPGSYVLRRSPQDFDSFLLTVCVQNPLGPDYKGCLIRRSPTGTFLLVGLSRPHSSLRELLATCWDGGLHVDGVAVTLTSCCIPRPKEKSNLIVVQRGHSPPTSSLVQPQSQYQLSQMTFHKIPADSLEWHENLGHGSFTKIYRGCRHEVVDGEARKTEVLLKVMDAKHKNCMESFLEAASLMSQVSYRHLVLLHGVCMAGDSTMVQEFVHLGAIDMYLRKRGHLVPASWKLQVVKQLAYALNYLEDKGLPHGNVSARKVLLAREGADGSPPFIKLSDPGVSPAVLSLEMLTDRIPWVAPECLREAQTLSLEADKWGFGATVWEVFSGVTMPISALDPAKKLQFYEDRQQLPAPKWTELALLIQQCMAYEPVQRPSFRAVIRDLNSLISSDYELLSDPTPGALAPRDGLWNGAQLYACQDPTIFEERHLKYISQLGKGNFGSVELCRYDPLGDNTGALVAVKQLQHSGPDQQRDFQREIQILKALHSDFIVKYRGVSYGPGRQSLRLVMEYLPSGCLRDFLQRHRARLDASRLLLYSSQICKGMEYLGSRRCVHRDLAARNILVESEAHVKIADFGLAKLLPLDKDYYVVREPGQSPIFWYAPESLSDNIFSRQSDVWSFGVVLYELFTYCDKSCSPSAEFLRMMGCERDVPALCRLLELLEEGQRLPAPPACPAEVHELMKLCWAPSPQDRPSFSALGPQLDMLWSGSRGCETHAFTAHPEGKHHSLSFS
Outline: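 After TCA quench and filter harvest, scintillation counting of 33P measured phosphorylation of poly(Glu)4Tyr (1 μM) by 1 nM JAK3. The 20-min, 25° C. reaction contained 5 μM ATP (200 μCi/μmole) in pH 7.4 HEPES buffer with 10 mM MgCl2.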

[4] = enzyme inhibition, Ki(app), Table 5
[5] = Table 6, enzyme inhibition data (Ki)

Sequence of ROCK I (Q13464 whole entry): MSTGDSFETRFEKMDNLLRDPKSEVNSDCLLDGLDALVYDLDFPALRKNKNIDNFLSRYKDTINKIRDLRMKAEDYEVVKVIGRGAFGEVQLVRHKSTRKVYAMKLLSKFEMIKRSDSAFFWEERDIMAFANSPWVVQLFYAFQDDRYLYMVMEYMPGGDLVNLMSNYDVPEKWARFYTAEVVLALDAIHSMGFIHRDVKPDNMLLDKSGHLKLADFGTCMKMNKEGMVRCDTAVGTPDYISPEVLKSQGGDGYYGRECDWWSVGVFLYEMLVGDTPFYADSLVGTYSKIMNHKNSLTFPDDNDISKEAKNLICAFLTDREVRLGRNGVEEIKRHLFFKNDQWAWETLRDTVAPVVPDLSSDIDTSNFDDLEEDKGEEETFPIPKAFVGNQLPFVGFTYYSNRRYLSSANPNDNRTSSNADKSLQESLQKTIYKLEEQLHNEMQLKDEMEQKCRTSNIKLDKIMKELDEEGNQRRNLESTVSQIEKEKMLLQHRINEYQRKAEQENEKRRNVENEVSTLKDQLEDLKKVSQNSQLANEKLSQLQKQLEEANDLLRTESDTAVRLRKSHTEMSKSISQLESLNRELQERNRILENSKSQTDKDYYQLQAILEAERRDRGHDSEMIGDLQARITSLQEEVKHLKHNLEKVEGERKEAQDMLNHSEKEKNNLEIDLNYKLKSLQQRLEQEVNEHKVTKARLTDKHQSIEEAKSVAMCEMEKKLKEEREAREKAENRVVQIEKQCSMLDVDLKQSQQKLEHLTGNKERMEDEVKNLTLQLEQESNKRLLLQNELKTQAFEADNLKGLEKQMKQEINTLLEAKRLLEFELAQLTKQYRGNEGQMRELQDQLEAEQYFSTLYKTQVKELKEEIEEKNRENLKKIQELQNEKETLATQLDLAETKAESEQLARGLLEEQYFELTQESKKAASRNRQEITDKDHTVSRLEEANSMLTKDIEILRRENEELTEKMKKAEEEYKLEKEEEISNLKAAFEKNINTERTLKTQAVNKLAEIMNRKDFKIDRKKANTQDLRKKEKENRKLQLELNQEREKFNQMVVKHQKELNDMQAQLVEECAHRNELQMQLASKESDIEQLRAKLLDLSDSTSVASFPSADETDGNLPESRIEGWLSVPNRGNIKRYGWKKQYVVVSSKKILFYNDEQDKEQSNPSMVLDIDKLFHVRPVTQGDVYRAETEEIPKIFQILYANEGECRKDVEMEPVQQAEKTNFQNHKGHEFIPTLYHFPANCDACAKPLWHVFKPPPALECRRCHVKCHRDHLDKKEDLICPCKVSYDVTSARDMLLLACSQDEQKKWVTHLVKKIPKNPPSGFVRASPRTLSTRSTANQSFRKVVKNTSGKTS

Structure (SMILES) | Ki [1, 4] | Ki ([2]; enzyme inhibition, Table 5) | Ki ([3]; enzyme inhibition, Table 5) | Ki [1, 5] | Ki [2, 5] | Ki [3, 5]
C1=C(c2ccnc3[nH]ccc23)CCC1 [compound 27, 4-Cyclopentenyl-1H-pyrrolo[2,3b]pyridine] | < 500 nM | < 500 nM | < 500 nM | – | – | –
C=C(c1c(Cl)cnc2[nH]ccc12)C1CCCCC1 [compound 69] | 500 to 5000 nM | 500 to 5000 nM | < 500 nM | – | – | –
Cc1csc(-c2c(Cl)cnc3[nH]ccc23)c1 [compound 144] | – | – | – | 500 to 5000 nM | < 500 nM | < 500 nM
CC(=O)c1ccccc1-c1ccnc2[nH]ccc12 [compound 213] | – | – | – | > 4000 nM | > 5000 nM | > 5000 nM
O=C(NCC(F)(F)F)c1ccc(-c2ccnc3[nH]ccc23)s1 [compound 260] | – | – | – | < 500 nM | < 500 nM | < 500 nM
N#CCCN(Cc1ccccc1)C(=O)c1cc(-c2ccnc3[nH]ccc23)c[nH]1 [compound 312] | – | – | – | < 500 nM | < 500 nM | < 500 nM
CC(C)Oc1ccc(-c2ccnc3[nH]ccc23)cc1 [compound 116, 4-(4-Isopropoxy-phenyl)-1H-pyrrolo[2,3-b]pyridine] | < 500 nM | < 500 nM | < 500 nM | – | – | –
CCC(=O)Nc1cccc(Nc2c(Cl)cnc3[nH]ccc23)c1 [compound 155] | – | – | – | > 4000 nM | < 500 nM | < 500 nM
Cc1ccc(F)c(-c2ccnc3[nH]ccc23)c1Cl [compound 244] | – | – | – | 500 to 5000 nM | > 5000 nM | 500 to 5000 nM
c1cnc2c(-c3ccnc4[nH]ccc34)cccc2c1 [compound 227] | – | – | – | > 4000 nM | > 5000 nM | > 5000 nM
C1=C(c2ccnc3[nH]ccc23)CCNC1 [compound 45] | < 500 nM | 500 to 5000 nM | 500 to 5000 nM | – | – | –
N#CCN(Cc1ccccc1)C(=O)c1cc(-c2c(F)cnc3[nH]ccc23)c[nH]1 [compound 391] | – | – | – | < 500 nM | < 500 nM | < 500 nM
CCCN(CCC)C(=O)c1cc(-c2ccnc3[nH]ccc23)c[nH]1 [compound 309] | – | – | – | < 500 nM | < 500 nM | < 500 nM
N#CCCN(Cc1ccccc1)C(=O)c1cc(-c2c(Cl)cnc3[nH]ccc23)c[nH]1 [compound 343] | – | – | – | 500 to 5000 nM | < 500 nM | < 500 nM
CC1CC[C@@H](C)N1C(=O)c1csc(-c2ccnc3[nH]ccc23)n1 (stereo partly drawn) [compound 414] | – | – | – | < 500 nM | < 500 nM | < 500 nM
CCCNC(=O)c1ccc(-c2ccnc3[nH]ccc23)cc1 [compound 267] | – | – | – | < 500 nM | < 500 nM | < 500 nM
CCN(Cc1ccccc1)C(=O)c1ccc(-c2ccnc3[nH]ccc23)s1 [compound 304] | – | – | – | < 500 nM | < 500 nM | < 500 nM
CCCS(=O)(=O)N1CC[C@H](Nc2c(Cl)cnc3[nH]ccc23)C1 [compound 178] | – | – | – | > 4000 nM | < 500 nM | < 500 nM
CC(=O)Nc1cccc(-c2ccnc3[nH]ccc23)n1 [compound 98, N-(6-(1H-pyrrolo[2,3-b]pyridine-4-yl)pyridin-2-yl)acetamine] | 500 to 5000 nM | < 500 nM | 500 to 5000 nM | – | – | –
Clc1cnc2[nH]ccc2c1-c1csc2ccccc12 [compound 142] | – | – | – | 500 to 5000 nM | < 500 nM | < 500 nM
O=C(Cc1ccccc1)Nc1cccc(-c2ccnc3[nH]ccc23)n1 [compound 99, N-(6-(1H-pyrrolo[2,3-b]pyridine-4-yl)pyridin-2-yl)phenylacetamide] | 500 to 5000 nM | < 500 nM | > 5000 nM | – | – | –
Clc1cnc2[nH]ccc2c1-c1cc2ccccc2o1 [compound 138] | – | – | – | > 4000 nM | < 500 nM | < 500 nM
